16 molecules from ChEMBL document CHEMBL5724696, “Autophagy assay results for EUbOPEN Chemogenomics Library” (2024) can be followed below.

The subject of assay [1] is U2OS. Briefly: (§1) Here: values are normalized to the positive (DMSO; basel flux = defined as 100% suppression) and negative (250nM Torin1; mTOR inhibitor; maximal inducer of autophagy defined as 0% suppression) control compounds and represented as % of ER-phagy suppression. […] The impact of autophagy induction on cells is complex and depends on the affected target. […] Of note, treatment concentrations may be sub-optimal for specific compounds, leading to false negative annotations. The assay is classed as functional, Homo sapiens. Conditions: Compound Concentration 1 uM, Culturing Media DMEM, 1 % Penicillin/Streptomycin, 10% Fetal bovin serum Add-On: blasticidin, Screening Media Control DMEM, 10% Fetal bovin serum Add-On: 1 µg/ml Doxycyclin, Screening Media Samples DMEM, 10% Fetal bovin serum Add-On: 1 µg/ml Doxycyclin 250nM Torin1.

Assay [2] relates to U2OS. Described as §1. Conditions: Compound Concentration 1 uM, Culturing Media DMEM, 1 % Penicillin/Streptomycin, 10% Fetal bovin serum Add-On: blasticidin, Screening Media Control DMEM, 10% Fetal bovin serum Add-On: 1 µg/ml Doxycyclin, Screening Media Samples DMEM, 10% Fetal bovin serum Add-On: 1 µg/ml Doxycyclin 250nM Torin1. The assay is classed as functional, Homo sapiens. The source holds these as a separate data set.

`Cc1cc(Nc2nccc(C)n2)cc(-c2cnc([C@@]3(O)CC[C@H](C(=O)O)C(C)(C)C3)s2)c1` [MRL-SYKi]: the ER-phagy suppression in the assay on U2OS [1] (Timepoint 12 hours) is -8.621%; in the assay on U2OS [1] (Timepoint 24 hours), -15.4814%; in the assay with U2OS [1] (Timepoint 36 hours) it was -12.3884%; with U2OS [1] (Timepoint 60 hours), -21.2275%; with U2OS [2] (Timepoint 12 hours), -2.1095%; in the assay with U2OS [2] (Timepoint 24 hours), -20.7857%. Also, the ER-phagy suppression with U2OS [2] (Timepoint 36 hours) is listed as -24.9988%; in the assay on U2OS [2] (Timepoint 54 hours), -19.5267%.

For `CN(c1ccnc(CNc2nc(Nc3ccc4c(c3)CC(=O)N4)ncc2C(F)(F)F)n1)S(C)(=O)=O` [PF-00911705], the ER-phagy suppression in the assay on U2OS [1] (Timepoint 12 hours) is 7.113%; in the assay with U2OS [1] (Timepoint 24 hours) it was 19.7718%; in the assay with U2OS [1] (Timepoint 36 hours), 14.8623%; in the assay with U2OS [1] (Timepoint 60 hours), 9.977%; in the assay with U2OS [2] (Timepoint 12 hours), 20.0554%; with U2OS [2] (Timepoint 24 hours), 26.0373%. Also, the results for the ER-phagy suppression in the assay with U2OS [2] (Timepoint 36 hours) and with U2OS [2] (Timepoint 54 hours) were 39.3297% and 54.466%, respectively.

Regarding `CC(=O)NCC(=O)N1[C@@H]2CC[C@H]1c1ccc(Nc3ncc(C(F)(F)F)c(NC4CCC4)n3)cc12` [PF-03814735], the ER-phagy suppression is 2.1297% in the assay with U2OS [1] (Timepoint 12 hours); 18.4214% in the assay on U2OS [1] (Timepoint 24 hours); 21.3987% in the assay with U2OS [1] (Timepoint 36 hours); 29.5902% in the assay on U2OS [1] (Timepoint 60 hours); -4.576% in the assay with U2OS [2] (Timepoint 12 hours); -22.3849% in the assay with U2OS [2] (Timepoint 24 hours). The ER-phagy suppression is listed as -35.8376% in the assay on U2OS [2] (Timepoint 36 hours) and -44.2787% with U2OS [2] (Timepoint 54 hours).

For the molecule `Cn1cnc2c(F)c(Nc3ccc(Br)cc3Cl)c(C(=O)NOCCO)cc21` [SELUMETINIB], the ER-phagy suppression is on record as 8.54% with U2OS [1] (Timepoint 12 hours); 20.3816% with U2OS [1] (Timepoint 24 hours); 25.3525% in the assay with U2OS [1] (Timepoint 36 hours); 22.2273% with U2OS [1] (Timepoint 60 hours); -10.3683% in the assay on U2OS [2] (Timepoint 12 hours); 3.869% with U2OS [2] (Timepoint 24 hours). Besides, the ER-phagy suppression in the assay on U2OS [2] (Timepoint 36 hours) is 4.29%; in the assay on U2OS [2] (Timepoint 54 hours) it was 11.1979%.

In the case of `Cn1cc(-c2ccc3nnc(Sc4ccc5ncccc5c4)n3n2)cn1` [SGX-523], the ER-phagy suppression in the assay on U2OS [1] (Timepoint 12 hours) is reported as 6.2538%; in the assay on U2OS [1] (Timepoint 24 hours), 0.9511%; in the assay on U2OS [1] (Timepoint 36 hours), 4.373%; in the assay with U2OS [1] (Timepoint 60 hours), 11.7711%; with U2OS [2] (Timepoint 12 hours), -11.2391%; with U2OS [2] (Timepoint 24 hours), -26.6862%. For the same molecule, the ER-phagy suppression is listed as -36.424% in the assay with U2OS [2] (Timepoint 36 hours) and -40.7928% with U2OS [2] (Timepoint 54 hours).

`O=C(O)c1ccc2c(c1)nc(Nc1cccc(Cl)c1)c1ccncc12` [SILMITASERTIB]: the ER-phagy suppression is recorded as -10.7244% in the assay with U2OS [1] (Timepoint 12 hours); -5.006% in the assay on U2OS [1] (Timepoint 24 hours); 5.808% in the assay on U2OS [1] (Timepoint 36 hours); 11.5407% with U2OS [1] (Timepoint 60 hours); 22.7695% with U2OS [2] (Timepoint 12 hours); 17.6388% with U2OS [2] (Timepoint 24 hours). The ER-phagy suppression came out at 22.3356% in the assay on U2OS [2] (Timepoint 36 hours) and 12.8536% with U2OS [2] (Timepoint 54 hours).

As to `Nc1c(C(=O)NCc2ccc(C(=O)NCCCC3CCCCC3)cc2)cnn1-c1ccccc1` [SR-318], the ER-phagy suppression in the assay on U2OS [1] (Timepoint 12 hours) was -4.749%; with U2OS [1] (Timepoint 24 hours), -10.9122%; in the assay with U2OS [1] (Timepoint 36 hours), -18.8313%; in the assay on U2OS [1] (Timepoint 60 hours), -35.2993%; in the assay on U2OS [2] (Timepoint 12 hours), 18.9481%; in the assay on U2OS [2] (Timepoint 24 hours), 11.0125%. The ER-phagy suppression with U2OS [2] (Timepoint 36 hours) is listed as 12.9949%; in the assay with U2OS [2] (Timepoint 54 hours), 20.6922%.

`CN1CCN(C(=O)C(C)(C)c2ccc(C(=O)Nc3cn4cc(-c5cc(C(C)(C)C)cc(C(C)(C)C)c5)ccc4n3)cc2)CC1` [T3-CLK-N]: the ER-phagy suppression is reported as 2.466% in the assay on U2OS [1] (Timepoint 12 hours); 0.7117% in the assay on U2OS [1] (Timepoint 24 hours); -6.9152% with U2OS [1] (Timepoint 36 hours); -11.2006% with U2OS [1] (Timepoint 60 hours); -1.207% with U2OS [2] (Timepoint 12 hours); -16.3306% with U2OS [2] (Timepoint 24 hours). Besides, the ER-phagy suppression was -17.7073% with U2OS [2] (Timepoint 36 hours) and -17.4198% in the assay with U2OS [2] (Timepoint 54 hours).

Consider `CN1CCN(C(=O)C(C)(C)c2ccc(C(=O)Nc3cn4cc(-c5ccncc5)ccc4n3)cc2)CC1` [T3-CLK], for which the ER-phagy suppression in the assay on U2OS [1] (Timepoint 12 hours) is 46.4649%; in the assay on U2OS [1] (Timepoint 24 hours), 79.2605%; in the assay on U2OS [1] (Timepoint 36 hours) it was 82.4738%; with U2OS [1] (Timepoint 60 hours), 83.9667%; in the assay with U2OS [2] (Timepoint 12 hours), 58.6484%; in the assay on U2OS [2] (Timepoint 24 hours), 70.9328%. Besides, the ER-phagy suppression in the assay on U2OS [2] (Timepoint 36 hours) is 70.8309%; in the assay with U2OS [2] (Timepoint 54 hours), 76.3625%.

For the molecule `CN1CCC(COc2cnc(-c3cccc(Cn4nc(-c5cccc(C#N)c5)ccc4=O)c3)nc2)CC1` [TEPOTINIB], the ER-phagy suppression is on record as -9.035% in the assay with U2OS [1] (Timepoint 12 hours); 9.179% in the assay with U2OS [1] (Timepoint 24 hours); 17.9604% in the assay with U2OS [1] (Timepoint 36 hours); 23.3369% in the assay with U2OS [1] (Timepoint 60 hours); 4.664% with U2OS [2] (Timepoint 12 hours); -2.8541% with U2OS [2] (Timepoint 24 hours). Also, the ER-phagy suppression was -6.061% in the assay with U2OS [2] (Timepoint 36 hours) and -17.192% in the assay on U2OS [2] (Timepoint 54 hours).

Take `Cc1cnc(-c2cc(Cl)ccc2F)cc1-n1c(=O)n(CC(N)=O)c2cnccc21` [TP-008]: the ER-phagy suppression in the assay on U2OS [1] (Timepoint 12 hours) was -1.571%; in the assay on U2OS [1] (Timepoint 24 hours) it was -13.0499%; in the assay on U2OS [1] (Timepoint 36 hours), -21.2168%; with U2OS [1] (Timepoint 60 hours) it was -35.4053%; in the assay with U2OS [2] (Timepoint 12 hours), -24.3103%; in the assay on U2OS [2] (Timepoint 24 hours), -37.6592%. For the same molecule, the ER-phagy suppression with U2OS [2] (Timepoint 36 hours) was -45.8786%; in the assay with U2OS [2] (Timepoint 54 hours) it was -56.4398%.

Turning to `CN1C(=O)[C@@H](N2CCc3cn(Cc4ccccc4)nc3C2=O)COc2ccccc21` [TP-030-1], the ER-phagy suppression in the assay with U2OS [1] (Timepoint 12 hours) was -22.1461%; with U2OS [1] (Timepoint 24 hours) it was -11.0455%; in the assay with U2OS [1] (Timepoint 36 hours) it was -18.8351%; with U2OS [1] (Timepoint 60 hours), -24.8138%; with U2OS [2] (Timepoint 12 hours), -1.154%; in the assay with U2OS [2] (Timepoint 24 hours), -18.125%. In addition, the ER-phagy suppression in the assay with U2OS [2] (Timepoint 36 hours) is recorded as -30.7242%; in the assay with U2OS [2] (Timepoint 54 hours) it was -23.6126%.

Regarding `CN1C(=O)[C@@H](N2CCc3c(nn(Cc4ccccc4)c3Br)C2=O)COc2ccccc21` [TP-030-2], the ER-phagy suppression in the assay with U2OS [1] (Timepoint 12 hours) is reported as -11.1908%; in the assay on U2OS [1] (Timepoint 24 hours), -12.0413%; in the assay on U2OS [1] (Timepoint 36 hours), -22.9996%; in the assay with U2OS [1] (Timepoint 60 hours), -25.2811%; with U2OS [2] (Timepoint 12 hours), 7.634%; in the assay with U2OS [2] (Timepoint 24 hours), -14.2706%. In addition, the ER-phagy suppression was -10.5345% with U2OS [2] (Timepoint 36 hours) and -6.796% in the assay with U2OS [2] (Timepoint 54 hours).

Turning to `CC(=O)Nc1cccc(-n2c(=O)n(C3CC3)c(=O)c3c(Nc4ccc(I)cc4F)n(C)c(=O)c(C)c32)c1` [TRAMETINIB], the ER-phagy suppression in the assay on U2OS [1] (Timepoint 12 hours) was 22.5636%; in the assay with U2OS [1] (Timepoint 24 hours), 31.8836%; in the assay with U2OS [1] (Timepoint 36 hours) it was 34.8635%; with U2OS [1] (Timepoint 60 hours), 24.7233%; with U2OS [2] (Timepoint 12 hours), -5.637%; in the assay with U2OS [2] (Timepoint 24 hours) it was 10.9132%. Also, the ER-phagy suppression in the assay on U2OS [2] (Timepoint 36 hours) turned out to be 18.5776%; with U2OS [2] (Timepoint 54 hours), 29.3457%.

Regarding `CNC(=O)c1ccccc1Nc1cc(Nc2ccc(N3CCOCC3)cc2OC)ncc1C(F)(F)F` [VS-4718], the ER-phagy suppression with U2OS [1] (Timepoint 12 hours) is 7.822%; in the assay on U2OS [1] (Timepoint 24 hours), -10.4532%; in the assay on U2OS [1] (Timepoint 36 hours), -8.464%; in the assay on U2OS [1] (Timepoint 60 hours), -16.508%; with U2OS [2] (Timepoint 12 hours) it was 14.2845%; with U2OS [2] (Timepoint 24 hours), -7.017%. The ER-phagy suppression in the assay with U2OS [2] (Timepoint 36 hours) is listed as -5.515%; in the assay on U2OS [2] (Timepoint 54 hours) it was 11.4938%.

In the case of `NC(=O)c1ccc(N(C(N)=O)c2c(F)cccc2F)nc1-c1ccc(F)cc1F` [VX-702], the ER-phagy suppression is 31.8026% in the assay on U2OS [1] (Timepoint 12 hours); 34.6886% in the assay on U2OS [1] (Timepoint 24 hours); 33.7769% with U2OS [1] (Timepoint 36 hours); 30.7144% with U2OS [1] (Timepoint 60 hours); 0.2881% in the assay with U2OS [2] (Timepoint 12 hours); -13.3426% in the assay on U2OS [2] (Timepoint 24 hours). In addition, the ER-phagy suppression in the assay on U2OS [2] (Timepoint 36 hours) is reported as -11.8024%; in the assay with U2OS [2] (Timepoint 54 hours), 0.1703%.
